Experimental data as given in US20210353648A1, “GRAPIPRANT UNIT DOSAGE FORMS” (Arrys Therapeutics, Inc., priority 2018, published 2021).

Legend:
[1] = tested on: serum bone-specific alkaline phosphatase; assay: Multiple ascending dose study: bone marker, percent change from baseline; type: in vivo, human; conditions: for change from baseline in bone-specific alkaline phosphatase (least squares mean): 300 mg BID
From the text: (§1) Each bone marker (serum bone-specific alkaline phosphatase and osteocalcin, urinary N-terminal telopeptide of type I collagen) is expressed as percentage change from baseline and analyzed. To assess influence of potential outliers on the bone marker data analyses, the following analysis can be conducted first. Potential outliers are identified as outside an interval consistent with a normal distribution defined as (median±3.5 standard deviations [SD]) for each dosing regimen and day combination. The SD is a pooled estimate across all dosing regimen and day combinations, each estimated by the scaled inter-quartile range 0.75 (Q75-Q25). Explicitly, for each dosing regimen and day combination, its SD denoted by SDi is estimated by its scaled inter-quartile range 0.75 (Q75-Q25). The overall SD is estimated as
(§2) Then, the (percent change from baseline) values are analyzed with a mixed effect model, with treatment (dosing regimen), day, and treatment-by-day interaction effects considered fixed and subject considered random. Baseline value is not included as a covariate. The model is fit separately to each group of cohorts (Cohorts 1-3 and 5). For Cohorts 1-3, days of interest are day 7 and day 14. For Cohort 5, days of interest are day 10 and day 17. For each group of cohorts, compound symmetry is assumed, and Restricted Maximum Likelihood Estimates are used. The least squares means (LSMeans) and 95% confidence intervals (CI) are obtained for each treatment and day combination. Within each treatment, LSMean percent changes from baseline at each post-dosing day (i.e., day 7 and day 14 for Cohorts 1-3, and day 10 and day 17 for Cohort 5) are obtained, along with their 95% CIs. In addition, for each post-dosing day, differences of the LSMean percent changes from baseline between active dosed regimen and placebo are obtained. The p-values comparing these differences from placebo are obtained using t-tests. No adjustments are made for multiple comparisons. […] If outliers are identified, additional mixed model analyses using the same mixed effect modeling as detailed above are to be conducted excluding the outliers. […] Individual percent-change-from-baseline profile versus time plots are plotted by treatment regimen.

[2] = tested on: urinary N-terminal telopeptide of type I collagen; assay: as above; type: in vivo, human
From the text: as §1, §2

osteocalcin = assay: as above; type: in vivo, human
From the text: as §1, §2

[3] = Phase 1 multiple ascending dose study of grapiprant tablets: safety and tolerability
From the text: Study Design: This was a randomized, investigator-blind, subject-blind, sponsor-open, placebo controlled, sequential parallel-group, multiple ascending dose study of grapiprant tablets.
Safety Evaluations: Safety evaluations included clinical monitoring, adverse events (AEs), clinical laboratory tests including renal function tests, bone markers (serum bone-specific alkaline phosphatase and osteocalcin and urinary N-terminal telopeptide of type I collagen), vital signs (heart rate and blood pressure), and 12-lead ECGs.
Safety Analyses: Safety data are presented in tabular and/or graphical format and summarized descriptively.
Bone markers were analyzed as percentage change from baseline and the influence of potential outliers was assessed.

[4] = Phase 1 multiple ascending dose study of grapiprant tablets: urine pharmacokinetics; type: in vivo, human; conditions: for CLR/Fu: mean; for AE / AE/Dose: urine; for AE / AE/Dose / CL renal: mean (SD); for CL renal: human, urine and serum
Description: Urine pharmacokinetic parameters can be used to assess the amount of parent drug excreted unchanged in the urine. The urine pharmacokinetic parameters can be calculated under the assumption that the amount of grapiprant excreted unchanged in the urine over the dosing interval was at steady state on the last day of dosing for the 14 day and 17 day oral administration described herein. As used herein, the term “AE” refers to the amount of parent drug excreted from 0-12 hours post dose on day 14 or day 17, calculated by (Urine Grapiprant Concentration×Urine Volume). As used herein, the term “AE/Dose” refers to percent of Dose renally excreted unchanged on day 14 or day 17, calculated by (AE/Dose)×100. As used herein, the term “CLR” refers to renal clearance on day 14 or day 17, calculated by (AE/AUCτ). As used herein, the term “CLR/Fu” refers to renal clearance of unbound drug, calculated by (CLR/Fu), where the fraction of drug in the serum not bound to proteins (Fu) is determined from in vitro human serum protein binding data.
Serial urine samples for PK evaluations of grapiprant were collected on Day 14 for up to 48 hours postdose (Cohorts 1-3) or on Day 17 for up to 24 hours postdose (Cohorts 5 and 6).
Grapiprant was extracted from the urine by protein precipitation, and then analyzed by a validated LC/MS/MS method. The dynamic range of the assay was 1.00 to 600 μg/mL. The following parameters were calculated under the assumption that the amount of grapiprant excreted unchanged in the urine over the dosing interval was at steady state on the 14th day of dosing: amount of parent drug excreted (AE), percent of dose renally excreted unchanged (AE/dose), renal clearance (CLR), and renal clearance of unbound drug (CLR/Fu).

[5] = 50 mg, 14-day oral administration, healthy adults, post-dosing day 7
[6] = 50 mg, 14-day oral administration, healthy adults, post-dosing day 14
[7] = 150 mg, 14-day oral administration, healthy adults, post-dosing day 7
[8] = 150 mg, 14-day oral administration, healthy adults, post-dosing day 14
[9] = 250 mg, 17-day oral administration, elderly with minor renal impairment, post-dosing day 10
[10] = 250 mg, 17-day oral administration, elderly with minor renal impairment, post-dosing day 17
[11] = 300 mg, 14-day oral administration, healthy adults, post-dosing day 7
[12] = 300 mg, 14-day oral administration, healthy adults, post-dosing day 14
[13] = elderly subjects, 250 mg BID versus placebo
[14] = 50 mg BID (n = 8), after 14 days of multiple oral dosing, healthy adults
[15] = 150 mg BID (n = 9), after 14 days of multiple oral dosing, healthy adults
[16] = 250 mg BID (Elderly) (n = 14), after 14 days of multiple oral dosing (Day 17)
[17] = 300 mg BID (n = 9), after 14 days of multiple oral dosing, healthy adults

## CCc1nc2c(C)nc(C)cc2n1-c1ccc(CCNC(=O)NS(=O)(=O)c2ccc(C)cc2)cc1 [Grapiprant, N-((4-(2-ethyl-4,6-dimethyl-1H-imidazo[4,5-c]pyridin-1-yl)phenethyl)carbamoyl)-4-methylbenzenesulfonamide]
[1]; [5]
  LS Mean Difference in bone-specific alkaline phosphatase: about −8.62%
[1]; [6]
  LS Mean Difference in bone-specific alkaline phosphatase: about 7.16%
[1]; [7]
  LS Mean Difference in bone-specific alkaline phosphatase: about 4.76%
[1]; [8]
  LS Mean Difference in bone-specific alkaline phosphatase: about 1.23%
[1]; [9]
  LS Mean Difference in bone-specific alkaline phosphatase: about −1.75%
[1]; [10]
  LS Mean Difference in bone-specific alkaline phosphatase: about 3.88%
[1]; Day 7, healthy subjects, placebo 4.70%, p=0.020
  change from baseline in bone-specific alkaline phosphatase (least squares mean): 20.80%
[1]; Day 14, healthy subjects, placebo −5.36%, p=0.006
  change from baseline in bone-specific alkaline phosphatase (least squares mean): 14.36%
[1]; [11]
  LS Mean Difference (of percent change from baseline) in bone-specific alkaline phosphatase: about 16.10%
[1]; [12]
  LS Mean Difference in bone-specific alkaline phosphatase: about 19.72%
[1]; [13]
  bone marker difference between treatment groups: no statistically significant differences
[2]; [5]
  LS Mean change in N-telopeptide of type I collagen: about 14.77%
[2]; [6]
  LS Mean change in N-telopeptide of type I collagen: about −23.50%
[2]; 150 mg BID, Day 14, healthy subjects, placebo 34.74%, p=0.050
  change from baseline in urine N-telopeptide (least squares mean): −3.97%
[2]; [7]
  LS Mean change in N-telopeptide of type I collagen: about −9.78%
[2]; [8]
  LS Mean change in N-telopeptide of type I collagen: about −38.72%
[2]; [9]
  LS Mean change in N-telopeptide of type I collagen: about −9.62%
[2]; [10]
  LS Mean change in N-telopeptide of type I collagen: about −16.76%
[2]; [11]
  LS Mean change in N-telopeptide of type I collagen: about 12.69%
[2]; [12]
  LS Mean change in N-telopeptide of type I collagen: about −21.33%
[2]; [13]
  bone marker difference between treatment groups: no statistically significant differences
osteocalcin; 50 mg BID, Day 7, healthy subjects, placebo 39.30%, p=0.023
  change from baseline in osteocalcin (least squares mean): 1.40%
osteocalcin; [5]
  LS Mean change in blood osteocalcin: about −37.90%
osteocalcin; [6]
  LS Mean change in blood osteocalcin: about −13.58%
osteocalcin; [7]
  LS Mean change in blood osteocalcin: about −31.02%
osteocalcin; [8]
  LS Mean change in blood osteocalcin: about −10.29%
osteocalcin; [9]
  LS Mean change in blood osteocalcin: about −5.91%
osteocalcin; [10]
  LS Mean change in blood osteocalcin: about −3.96%
osteocalcin; 300 mg BID, Day 14, healthy subjects, placebo 47.84%, p=0.045
  change from baseline in osteocalcin (least squares mean): 14.37%
osteocalcin; [11]
  LS Mean change in blood osteocalcin: about −10.30%
osteocalcin; [12]
  LS Mean change in blood osteocalcin: about −33.47%
osteocalcin; [13]
  bone marker difference between treatment groups: no statistically significant differences
[3]; 50 mg BID, healthy subjects
  AEs reported: 7 AEs
[3]; 50 mg BID, healthy subjects (9 treated)
  subjects reporting AEs: 4 subjects
[3]; 150 mg BID, healthy subjects
  AEs reported: 23 AEs
[3]; 150 mg BID, healthy subjects (9 treated)
  subjects reporting AEs: 7 subjects
[3]; 250 mg BID, elderly subjects
  AEs reported: 44 AEs
[3]; 250 mg BID, elderly subjects (15 treated)
  subjects reporting AEs: 14 subjects
[3]; 250 mg BID, elderly subjects with mild renal impairment
  tolerability: well tolerated
[3]; 300 mg BID, healthy subjects
  AEs reported: 13 AEs
[3]; 300 mg BID, healthy subjects (9 treated)
  subjects reporting AEs: 6 subjects
[3]; all cohorts
  deaths: No deaths
  severity of most treatment-emergent AEs: mild
  vital signs and ECGs: no clinically significant mean changes from baseline
[3]; elderly subjects with mild renal impairment, 250 mg BID, versus placebo group
  systolic blood pressure: small increase from baseline
[3]; grapiprant versus placebo
  laboratory safety tests, including renal function tests: no clinically significant findings
[3]; healthy subjects, doses up to 300 mg BID, triplicate BP monitoring
  systolic blood pressure: no difference between changes from baseline compared with placebo
[3]; multiple-dose administration for 14 days, doses up to 300 mg BID, healthy adult subjects
  tolerability: well tolerated
[3]; one elderly subject, 250 mg BID
  withdrawal due to AE: non-drug related AE of ventricular tachycardia
[3]; one healthy subject, 150 mg BID
  serious AEs considered related to the study medication: decreased hemoglobin, decreased hematocrit, and gastrointestinal hemorrhage
[4]; [14]
  CLR/Fu: 6120 mL/min
  AE: 10.6 (3.18) mg
  AE/Dose: 21.2 (6.37) %
  CL renal: 56.3 mL/min
[4]; [15]
  CLR/Fu: 6000 mL/min
  AE: 33.3 (11.2) mg
  AE/Dose: 22.2 (7.48) %
  CL renal: 55.2 mL/min
[4]; [16]
  CLR/Fu: 2720 mL/min
  AE: 57.9 (18.7) mg
  AE/Dose: 23.2 (7.48) %
  CL renal: 25 mL/min
[4]; [17]
  CLR/Fu: 4840 mL/min
  AE: 82.4 (27.1) mg
  AE/Dose: 27.5 (9.05) %
  CL renal: 44.5 mL/min
[4]; healthy and elderly subjects
  renal clearance corrected for protein binding compared with GFR: much greater than the glomerular filtration rate
